Test: Acute toxicity on mice
Settings: mouse, in vivo, po; ICR-slc male mice, 4 weeks old
Experimental: The compounds of Examples 4, 20 and 42 were tested for acute toxicity on mice^*.
CON=C(C(=O)NC1C(=O)N2C(C(=O)OCC(C)=Cc3ccccc3)=CCS[C@H]12)c1csc(N)n1 (stereo partly drawn) [Example 4, 2-Methyl-3-phenyl-2-propenyl 7-[2-(2-amino-4-thiazolyl)-2-methoxyiminoacetamido]-3-cephem-4-carboxylate] gave an LD50 greater than 5000 mg/kg.
CON=C(C(=O)NC1C(=O)N2C(C(=O)OCC=C(C)C)=CCS[C@H]12)c1csc(N)n1 (stereo partly drawn) [Example 20, 3-Methyl-2-butenyl 7-[2-(2-amino-4-thiazolyl)-2-methoxyiminoacetamido]-3-cephem-4-carboxylate] gave an LD50 greater than 5000 mg/kg.
CC=C(C)COC(=O)C1=CCS[C@@H]2C(NC(=O)C(=NOC)c3csc(N)n3)C(=O)N12 (stereo partly drawn) [Example 42, 2-Methyl-2-butenyl 7-[2-(2-amino-4-thiazolyl)-2-methoxyiminoacetamido]-3-cephem-4-carboxylate] showed an LD50 greater than 5000 mg/kg.

Source: patent EP0108627A2, “Cephalosporin derivatives and process for producing the same” (SUMITOMO CHEMICAL COMPANY, LIMITED, priority 1982, dated 1984)
